Source: patent publication US20030161787A1, “Method for the identification of agents and genes influencing cardiovascular function” (priority 2000, published 2003)

How the values were obtained:
zebrafish larvae = test: Zebrafish larvae bathed in drug-containing medium; heart beat rate, contractility and blood flow monitored by microscope; assay type: in vivo; conditions: for effect on heart beat rate, contractility and blood flow (cardiac performance) of untreated fish: applied alone to the surrounding medium, 4 d old larvae (FIG. 4); for effect on heart beat rate, contractility and blood flow: drug added to bathing medium, 2 d old larvae, 100 μM (FIG. 1) or increasing concentrations (FIG. 2)
Description: About 50 zebrafish larvae were incubated for 2-7 d at 22-28° C. in petri dishes filled with 30 ml embryo medium.
(§1) At the day of the experiment 10 larvae were transferred to small petri dishes filled with 10 ml embryo medium, 0.5 ml MESAB solution and 10 μl of the respective drug (or +10 μl of a second drug) added from a 1000-fold stock solution prepared with DMSO, these three components were previously mixed in 50 ml plastic tubes (controls only receive 10 μl DMSO).
(§2) At certain time points the contractility of the heart and blood flow was monitored, and the heart rate was determined by counting the heart beat with the aid of a stereo-microscope.

[1] = test system: nifedipine-treated zebrafish; test: Reversal of nifedipine-induced effects on the heart of zebrafish larvae by a second drug; assay type: in vivo
Description: Similarely, putative anti-arrhythmic agents can be identified by studying heart beats of teleost larvae which were bathed prior to or simultaneous with the addition of the agents in a solution of an arrhythmia-inducing drug.
as §1, §2

[2] = test system: three-day old zebrafish larvae; test: Induction of arrhythmic heart beat in three-day old zebrafish larvae by arrhythmia-inducing drugs; conditions: low doses in medium; anaesthetized larvae, dissecting microscope
[3] = molecular target: HERG (human ether-a-gogo-related gene) (Homo sapiens, UniProt Q12809); conditions: cited from earlier work
HERG (human ether-a-gogo-related gene), sequence (Q12809 whole entry): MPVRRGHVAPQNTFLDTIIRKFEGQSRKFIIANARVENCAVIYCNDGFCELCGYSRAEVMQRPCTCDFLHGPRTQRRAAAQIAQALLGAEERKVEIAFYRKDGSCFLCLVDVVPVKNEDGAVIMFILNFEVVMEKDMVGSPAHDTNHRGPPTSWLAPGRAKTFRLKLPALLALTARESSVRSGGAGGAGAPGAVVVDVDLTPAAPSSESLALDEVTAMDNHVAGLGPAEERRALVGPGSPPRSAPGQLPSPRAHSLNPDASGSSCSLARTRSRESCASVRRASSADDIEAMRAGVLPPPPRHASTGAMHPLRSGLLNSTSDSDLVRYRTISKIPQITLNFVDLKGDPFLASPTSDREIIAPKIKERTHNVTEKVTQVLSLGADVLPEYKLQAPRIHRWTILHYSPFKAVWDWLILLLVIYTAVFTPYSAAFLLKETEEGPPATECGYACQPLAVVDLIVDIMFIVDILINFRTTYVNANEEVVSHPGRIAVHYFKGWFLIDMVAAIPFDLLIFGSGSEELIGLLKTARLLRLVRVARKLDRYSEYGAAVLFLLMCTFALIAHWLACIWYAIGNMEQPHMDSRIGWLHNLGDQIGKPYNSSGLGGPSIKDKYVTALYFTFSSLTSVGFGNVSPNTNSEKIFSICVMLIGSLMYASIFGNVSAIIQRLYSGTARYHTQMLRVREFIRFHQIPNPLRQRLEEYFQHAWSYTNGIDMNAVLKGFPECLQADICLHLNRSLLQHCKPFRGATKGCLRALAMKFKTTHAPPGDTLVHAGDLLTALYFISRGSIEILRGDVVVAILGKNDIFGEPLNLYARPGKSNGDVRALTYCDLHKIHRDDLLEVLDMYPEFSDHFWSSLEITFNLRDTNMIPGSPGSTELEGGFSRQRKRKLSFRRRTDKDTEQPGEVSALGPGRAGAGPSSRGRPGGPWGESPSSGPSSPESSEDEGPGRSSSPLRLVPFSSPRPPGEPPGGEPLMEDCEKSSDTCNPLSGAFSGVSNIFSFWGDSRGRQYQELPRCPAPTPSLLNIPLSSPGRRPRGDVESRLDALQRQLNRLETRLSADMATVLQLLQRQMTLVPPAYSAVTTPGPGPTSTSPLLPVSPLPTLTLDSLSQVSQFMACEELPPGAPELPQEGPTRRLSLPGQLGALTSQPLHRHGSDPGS

Compound: COC(=O)C1=C(C)NC(C)=C([N+](=O)[O-])C1c1ccccc1C(F)(F)F (racemic) [Bay K 8644, 1,4-dihydro-2,6-dimethyl-5-nitro-4-[2′-(trifluoromethyl)phenyl]-3-pyridinecarboxylic acid methyl ester]
- effect on heart beat rate, contractility and blood flow (cardiac performance) of untreated fish (zebrafish larvae): nearly negligible effects
- effect on heart beat rate, contractility and blood flow (cardiac performance) of untreated fish (zebrafish larvae; listed as (+/−)Bay K 8644): nearly no effect
- re-animation of larvae with arrest of the heart beat ([1]; arrest induced by 50 μM nifedipine for 1 h, added to bathing solution, 3 d old larvae (FIG. 5)): re-animated within minutes
- contractility of nifedipine-treated zebrafish ([1]; nifedipine-treated larvae (FIG. 3)): strong increase in contractility
- blocking of the effects of nifedipine ([1]; simultaneous addition with nifedipine, 4 d old larvae (FIG. 3)): completely blockable

Compound: COc1ccc(CCN2CCC(Nc3nc4ccccc4n3Cc3ccc(F)cc3)CC2)cc1 [astemizole]
- larvae with induced arrhythmic heart beat [2]: ~100 % of larvae

Compound: COc1cc(N)c(Cl)cc1C(=O)NC1CCN(CCCOc2ccc(F)cc2)CC1OC (stereo not shown) [cisapride]
- block of HERG [3]: high affinity block
- larvae with induced arrhythmic heart beat [2]: ~100 % of larvae

Compound: O=C(CCCN1CC=C(n2c(=O)[nH]c3ccccc32)CC1)c1ccc(F)cc1 [droperidol]
- larvae with induced arrhythmic heart beat [2]: ~100 % of larvae

Compound: O=C(CCCN1CCC(O)(c2ccc(Cl)cc2)CC1)c1ccc(F)cc1 [haloperidol]
- block of HERG [3]: high affinity block
- larvae with induced arrhythmic heart beat [2]: ~100 % of larvae

Compound: O=c1[nH]c2ccccc2n1C1CCN(CCCC(c2ccc(F)cc2)c2ccc(F)cc2)CC1 [pimozide]
- larvae with induced arrhythmic heart beat [2]: ~100 % of larvae

Compound: CC(C)NCC(O)COc1cccc2ccccc12 (stereo not shown) [propanolol]
- effect on heart beat rate, contractility and blood flow (zebrafish larvae): decrease in heart beat rate, contractility and blood flow

Compound: CC(C)(C)c1ccc(C(O)CCCN2CCC(C(O)(c3ccccc3)c3ccccc3)CC2)cc1 (stereo not shown) [terfenadine]
- larvae with induced arrhythmic heart beat [2]: ~100 % of larvae

Compound: CSc1ccc2c(c1)N(CCC1CCCCN1C)c1ccccc1S2 (stereo not shown) [thioridazine]
- larvae with induced arrhythmic heart beat [2]: ~100 % of larvae

Compound: COc1ccc(CCN(C)CCCC(C#N)(c2ccc(OC)c(OC)c2)C(C)C)cc1OC (stereo not shown) [verapamil]
- effect on heart beat rate, contractility and blood flow (zebrafish larvae): decrease in heart beat rate, contractility and blood flow
